According to patent US11331328B2, “Compositions and methods for inhibiting antiapoptotic Bcl-2 proteins as anti-aging agents” (priority 2014, dated 2022):
Read-outs that look alike come from different tables or passages of the source. Peptide text beside a SMILES is read from it. * marks the point of attachment. Cbz = O=C(OCc1ccccc1)*

Key:
[1] = tested on: non-senescent WI-38 cells (NC); experiment: Cell viability (PI flow cytometry), LD50 in non-senescent WI-38 cells; format: cell-based, human
Method: (§1) Mouse embryonic fibroblasts (MEF) were isolated from mouse embryos as described^1. All cells were cultured in a complete medium (CM) (Dulbecco's Modified Eagle Medium supplemented with 10% fetal bovine serum [FBS], 100 U/ml penicillin, and 100 μg/ml streptomycin [all from Atlanta Biologicals, Norcross, Ga., and USA]) in a humidified incubator at 37° C. and 5% CO2. Low passages of WI-38 cells (<25), IMR-90 (<25), REC cells (<25) and MEF (<3) were used as non-senescent controls or for induction of senescence to avoid replicative senescence. […] To induce senescence by expression of oncogenic Ras (Ras^V12), WI-38 cells were infected with the retroviruses pBabe-H-Ras or pBabe-puro (control) (Addgene, Cambridge, Mass., UAS)^2, 3. […] Senescent cells were maintained in culture for a few days, changing the culture medium every 3 days until use. For in vitro cell culture experiments, we usually repeated the experiments for at least three times to ensure the reproducibility of the data. In addition, the repeats of the experiments for three times will allow us to obtain 3 independent observations for statistical analysis.
(§2) Flow cytometry: Non-senescent and senescent cells were seeded into wells of 24- or 48-well at about 70% of confluence. […] Both quiescent non-senescent cells and permanently growth arrested senescent cells were treated with vehicle (0.1% DMSO or PBS) or increasing concentrations of the compounds listed in Table 1 for various durations. […] After incubated with propidium iodide (PI 100 ng/ml) in PBS at room temperature for 1 min, cells were centrifuged at 1200 rpm for 6 min and then resuspended in PBS with 2% of FBS for analysis by a BD LSR II flow cytometer (BD Biosciences, San Jose, Calif., USA). Viable cells (PI^− cells) were numerated by flow cytometry at a constant flow rate and calculated as a percentage of control cells treated with vehicle using the formula: percentage of control=(Ndrug/NC)×100, where Ndrug and NC represent the absolute number of PI^− viable cells of drug-treated and vehicle-treated cells, respectively.
(§3) MTT (3-[4,5-dimethylthiazol-2-yl]-2,5 diphenyl tetrazolium bromide) assay: Cells were harvested, washed and resuspended in CM and added to wells of 24- or 48-well plates as described above. […] After 4 h at 37° C., the formazan was solubilized by lysing the cells with 300 μl of DMSO. Absorbance of formazan was measured at 595 nm using a Microplate Reader (BioTek, Winooski, Vt., USA). Cell viability was calculated in the method as previously described^4.
(§4) Trypan blue exclusion assay: Cells were harvested, washed and resuspended in CM and added to wells of a 6-well plate as described above. […] Living cells stained negative for trypan blue and were counted under light microscopy.
(§5) Briefly, Probit (set as y) was determined by looking up their correspondence to the % responded in Finney's table. The log of the compound concentrations was used as x. By fitting a line of regression, we produce the formula y=ax+b.

[2] = tested on: IR-induced senescent WI-38 cells (SC); experiment: Cell viability (PI flow cytometry), LD50 in IR-induced senescent WI-38 cells; format: cell-based, human; details: for LD50 Ratio (NC/SC): non-senescent vs IR-induced senescent WI-38 cells
Method: as §1, §2, §3, §4, §5

[3] = tested on: senescent cells in TBI p16-3MR mice; experiment: Senescent cell clearance in TBI p16-3MR mice (luminescence, p16 mRNA); format: in vivo, mouse; details: 6 Gy TBI; 2 treatment cycles
Method: ABT was given by gavage at 50 mg/kg/d for 7 d per cycle for 2 cycles with a 2-wk interval. GCV was given to the mice by ip injection at 25 mg/kg/d for 5 d per cycle for 2 cycles with a 2-wk interval. […] The mice were euthanized the day after the imaging by CO2 inhalation and followed by cervical dislocation. Tissues were harvested for immediate tissue luminescence imaging as described below or RNA extraction for analyses of p16, IL-1α, CCL-5, and CXCL-10 mRNA levels by qRT-PCR.
For in vivo luminescence, mice were injected i.p. with 250 μl of Xenolight RediJect Coelenterazine h (100 μg/mL, Calipers-PerkinElmer, Waltham, Mass., USA). The mice were anesthetized with 4% isoflurane gas at 1 L/minute oxygen flow 5 min after the injection. Luminescence images were acquired using a Xenogen IVIS-200 Optical In Vivo imaging System equipped with a Living Image Version 4.3.1 (Caliper Life Sciences, Hopkinton Mass., USA). Mice were oriented in a supine position in the scanner. […]
For tissue luminescence imaging, after harvested from euthanized mice, tissues were immediately soaked in pre-warmed (37° C.) PBS with 2% FBS and 1:10 dilution of Xenolight RediJect Coelenterazine h for 10 min. They were transferred into a new 35-mm dish and luminescence images were taken 12-15 min after soaking in the substrate solution using a Xenogen IVIS-200 Optical In Vivo imaging System. […]

[4] = tested on: IL-1α, TNFα, CCL-5, CXCL-10 mRNA; experiment: SASP mRNA levels in lungs of TBI p16-3MR mice (qRT-PCR); format: in vivo, mouse; details: 6 Gy TBI; 2 treatment cycles
Method: To measure p21 and GAPDH mRNA levels in WI-38 cells and IL-1α, TNFα, CCL-5, and CXCL-10 mRNA levels in mouse tissues, SYBR assay kit was used (Applied biosystems in life technologies). Briefly, 1 μl cDNA was mixed with 7.5 μl SYBR Green PCR Master Mix and 0.2 μl of primers (Table 5). Samples were then added with 6.30 μl of H2O to give a total 15 μl of mixture. qPCR conditions were as follows: 95° C. for 10 min, 40×(95° C. for 15 s and 60° C. for 1 min), 95° C. for […], 95° C. for 15 min. All reactions were run in triplicate on an ABI StepOnePlus Real-Time PCR System.

[5] = tested on: wild-type or p16-3MR mice; details: at the doses used; cited from earlier work
[6] = Homo sapiens, WI-38 fibroblasts, non-senescent, LD50 by Probit Analysis, read-out: LD50 (μM) for non-senescent cells (NC)
[7] = Homo sapiens, WI-38 fibroblasts, IR-induced senescent, LD50 by Probit Analysis, read-out: LD50 (μM) for senescent cells (SC)
[8] = WI-38 fibroblasts, non-senescent, LD50 by Probit Analysis, read-out: LD50 (μM) for non-senescent cells (NC)
[9] = WI-38 fibroblasts, IR-induced senescent, LD50 by Probit Analysis, read-out: LD50 (μM) for senescent cells (SC)
[10] = Homo sapiens, WI-38, read-out: LD50 (μM) for non-senescent cells (NC)
[11] = Homo sapiens, WI-38, read-out: LD50 (μM) for senescent cells (SC)

Molecule	CC50 [1, 6]	IC50 [2, 7]	LD50 Ratio (NC/SC) [2]	CC50 [1, 8]	IC50 [2, 9]	further results
O=CC[C@@H](O)[C@H](O)[C@H](O)CO [2-Deoxy-D-glucose]	4800 µM	8890 µM	0.5	–	–	–
O=C(O)C(=O)CBr [3-bromopyruvate]	–	–	0.8	280.00 µM	370.00 µM	–
CC1(C)CCC(CN2CCN(c3ccc(C(=O)NS(=O)(=O)c4ccc(NCC5CCOCC5)c([N+](=O)[O-])c4)c(Oc4cnc5[nH]ccc5c4)c3)CC2)=C(c2ccc(Cl)cc2)C1 [ABT199]	> 10 µM	> 10 µM	–	–	–	selective killing of SCs (viable WI-38 cells, NC vs IR-SC) ([2]; 5 μM ABT199, 0.5 μM WEHI539, or both, 72 h): did not selectively kill SCs
CC(=O)OC[C@H]1O[C@@H]([S-])[C@H](OC(C)=O)[C@@H](OC(C)=O)[C@@H]1OC(C)=O.CCP(CC)CC.[Au+] [Auranofin]	–	–	1.0	5.13 µM	5.34 µM	–
Cc1ccc2nc(NCCN)c3ncc(C)n3c2c1 [BMS345541]	6.87 µM	10.8 µM	0.6	–	–	–
CC(C)C[C@H](NC(=O)[C@H](Cc1ccccc1)NC(=O)c1cnccn1)B(O)O [Bortzomib]	–	–	0.7	0.016 µM	0.024 µM	–
CCCCS(=N)(=O)CCC(N)C(=O)O (stereo not shown) [Buthionine sulfoximine]	2340 µM	2390 µM	1.0	–	–	–
O=C(O)CCCCC(CCSCc1ccccc1)SCc1ccccc1 (stereo not shown) [CPI-613]	223 µM	205 µM	1.1	–	–	–
CCCCCCCCCC[P+](c1ccccc1)(c1ccccc1)c1ccccc1 [Decyl-triphenylphosphonium]	–	–	1.4	–	–	CC50 [1, 10]: 1.41 µM; IC50 [2, 11]: 0.98 µM
C[C@]12CC[C@H](O)CC1=CC[C@@H]1[C@@H]2CC[C@]2(C)C(=O)CC[C@@H]12 [Dehydroepiandrosterone]	296 µM	510 µM	0.6	–	–	–
CNCCCN1c2ccccc2CCc2ccccc21 [Despramine]	–	–	1.0	50.03 µM	51.13 µM	–
CS[C@H]1SC[C@H]2C(=O)N(C)[C@@H](C(C)C)C(=O)OC[C@@H](NC(=O)c3cnc4ccccc4n3)C(=O)N[C@@H](C)C(=O)N(C)[C@@H]1C(=O)N(C)[C@@H](C(C)C)C(=O)OC[C@@H](NC(=O)c1cnc3ccccc3n1)C(=O)N[C@@H](C)C(=O)N2C [Echinomycin]	–	–	0.2	–	–	CC50 [1, 10]: 0.42 µM; IC50 [2, 11]: 2.86 µM
Nc1nc(O)c2ncn(COC(CO)CO)c2n1 [GCV, ganciclovir]	–	–	–	–	–	SCs in lungs (luminescence, p16 mRNA) [3]: reduced IR-induced SCs; SASP in lungs [4]: suppressed the SASP induced by TBI; toxicity to mice [5]: non-toxic to wild-type or p16-3MR mice
OO [Hydrogen peroxide]	135 µM	231 µM	0.58	–	–	–
C=CCNc1c(O)cc2c(O)c1C[C@@H](C)C[C@H](OC)[C@H](O)[C@@H](C)/C=C(\C)[C@H](OC(N)=O)[C@@H](OC)/C=C\C=C(/C)C(=O)N2 [IPI-504]	–	–	0.2	–	–	CC50 [1, 10]: 0.14 µM; IC50 [2, 11]: 0.93 µM
O=c1cc(-c2cccc3c2Sc2ccccc2S3)oc(N2CCOCC2)c1 [KU55933]	5.1 µM	30.7 µM	0.2	–	–	–
CC(C)C[C@@H](C=O)NC(=O)[C@H](CC(C)C)NC(=O)[C@H](CC(C)C)NC(=O)OCc1ccccc1 [MG132] (Cbz-Leu-Leu-Leu-aldehyde)	–	–	0.1	–	–	CC50 [1, 10]: 0.24 µM; IC50 [2, 11]: 1.92 µM

Molecule	CC50 [1, 6]	IC50 [2, 7]	LD50 Ratio (NC/SC) [2]	CC50 [1, 8]	IC50 [2, 9]	further results
Cc1csc(=NC2CCCCC2)n1/N=C/c1ccc(O)c(O)c1O [MIM1]	–	–	1.0	>50.00 µM	>50.00 µM	–
O=c1cc(N2CCOCC2)oc2c1ccc1ccccc12 [NU7026]	–	–	0.7	47.02 µM	64.03 µM	–
COc1ccc(C2=N[C@@H](c3ccc(Cl)cc3)[C@@H](c3ccc(Cl)cc3)N2C(=O)N2CCNC(=O)C2)c(OC(C)C)c1 [Nutlin3]	–	–	0.1	5.62 µM	82.16 µM	–
S=C=NCCc1ccccc1 [Phenethyl isothiocyanate (PEITC), Phenethyl isothiocyanate]	< 10 µM	> 10 µM	<1.0	–	–	–
CC1=CC(=O)c2c(O)cccc2C1=O [Plumbagin]	12.6 µM	8.7 µM	1.5	–	–	–
CCCCCCCCCCCCC/C=C/[C@@H](O)[C@@H](N)CO[C@@H]1O[C@H](CO)[C@H](O)[C@H](O)[C@H]1O [Psychosine]	–	–	0.9	46.32 µM	52.25 µM	–
CO[C@H]1C[C@@H]2CC[C@@H](C)[C@@](O)(O2)C(=O)C(=O)N2CCCC[C@H]2C(=O)O[C@H]([C@H](C)C[C@@H]2CC[C@@H](O)[C@H](OC)C2)CC(=O)[C@H](C)/C=C(\C)[C@@H](O)[C@@H](OC)C(=O)[C@H](C)C[C@H](C)/C=C/C=C/C=C/1C [Rapamycin]	–	–	1.0	–	–	CC50 [1, 10]: > 0.04 µM; IC50 [2, 11]: > 0.04 µM
Oc1ccc(-c2nc(-c3ccncc3)c(-c3ccc(F)cc3)[nH]2)cc1 [SB202190]	> 800 µM	> 800 µM	–	–	–	–
NCCCNCCCCNCCCN [Spermine]	> 40 µM	> 40 µM	–	–	–	–
CC(C)(C)c1ccc(C(O)CCCN2CCC(C(O)(c3ccccc3)c3ccccc3)CC2)cc1 (stereo not shown) [Terfenadine]	6.13 µM	6.87 µM	0.9	–	–	–
CC(/C=C/C(=O)NO)=C\[C@@H](C)C(=O)c1ccc(N(C)C)cc1 [Trichostatin A(TSA), Trichostatin A]	–	–	1.87	0.72 µM	0.39 µM	–
O=C(CCCCCCC(=O)Nc1ccccc1)NO [Vorinostat(SAHA), Vorinostat]	0.85 µM	2.21 µM	0.38	–	–	–
COc1c(O)cc(O)c2c(=O)cc(-c3ccccc3)oc12 [Wogonin]	–	–	1.0	–	–	CC50 [1, 10]: > 200 µM; IC50 [2, 11]: > 200 µM
COCCn1c2c([n+](Cc3cnccn3)c1C)C(=O)c1ccccc1C2=O [YM-155]	78.4 µM	50 µM	1.6	–	–	–
Arsenic trioxide	–	–	0.9	15.65 µM	18.26 µM	–
Balifomycin A1	–	–	1.3	29.71 µM	22.11 µM	–
